Experimental data reported in patent US10759783B2, “Biaryl inhibitors of Bruton'S tyrosine kinase” (BIOGEN MA INC., priority 2013, dated 2020).
Like-named read-outs stand apart in the source and are kept apart here.

Key:
BTK enzyme = molecular target: T1, BTK enzyme (Homo sapiens, UniProt Q06187); experiment: In vitro BTK kinase assay: BTK-POLYGAT-LS assay; assay type: biochemical; settings: ATP 10 μM, read-out: IC50 (10uMATP)
T1 construct: purchased Upstate 14-552
In short: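 Human BTK activity was measured with final 10 μM ATP and 100 nM polyGAT substrate in pH 7.5 Tris buffer with 10 mM MgCl2, DTT, Triton X-100 and casein.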

[1] = molecular target: BTK (phospho-BTK) in human whole blood (Homo sapiens, UniProt Q06187); experiment: In vitro PD assay in human whole blood (pBTK assay)
BTK (phospho-BTK) in human whole blood, sequence (Q06187 whole entry): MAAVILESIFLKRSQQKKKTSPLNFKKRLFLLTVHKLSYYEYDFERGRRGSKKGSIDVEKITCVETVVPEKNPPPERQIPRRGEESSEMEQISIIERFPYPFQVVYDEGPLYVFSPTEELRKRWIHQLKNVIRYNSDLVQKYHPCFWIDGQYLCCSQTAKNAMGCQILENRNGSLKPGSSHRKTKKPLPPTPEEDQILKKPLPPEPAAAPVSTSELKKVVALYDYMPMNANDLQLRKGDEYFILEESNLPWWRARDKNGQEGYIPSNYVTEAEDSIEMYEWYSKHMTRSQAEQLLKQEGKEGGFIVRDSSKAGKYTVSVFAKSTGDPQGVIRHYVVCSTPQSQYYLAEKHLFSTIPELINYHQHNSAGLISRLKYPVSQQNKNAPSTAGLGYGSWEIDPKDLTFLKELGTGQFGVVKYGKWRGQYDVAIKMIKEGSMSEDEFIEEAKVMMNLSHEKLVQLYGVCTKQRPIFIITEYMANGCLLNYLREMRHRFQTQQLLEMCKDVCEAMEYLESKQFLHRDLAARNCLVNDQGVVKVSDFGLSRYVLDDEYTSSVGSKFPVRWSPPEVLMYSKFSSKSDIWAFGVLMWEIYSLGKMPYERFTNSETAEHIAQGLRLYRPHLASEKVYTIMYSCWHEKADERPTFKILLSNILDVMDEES

T1 sequence (Q06187 whole entry): as above

SMILES | IC50 (BTK enzyme) | IC50 [1] | IC50 ([1]; read-out: pBTK IC50, human whole blood, 37° C. for 30 min)
CC(C)(C)OC1CN(C(=O)NC2CCCCc3cc(-c4ccnc(Nc5cnn([C@H]6CCOC6)c5)n4)ccc32)C1 (stereo partly drawn) [Example I-334, 3-tert-butoxy-N-[2-[2-[[1-[(3S)-tetrahydrofuran-3-yl]pyrazol-4-yl]amino]pyrimidin-4-yl]-6,7,8,9-tetrahydro-5H-benzo[7]annulen-5-yl]azetidine-1-carboxamide] | < 10 nM | < 500 nM | –
Cc1cc(-c2ccnc(Nc3cnn4c3CCC4)n2)ccc1CNC(=O)N1CC(OC(C)(C)C)C1 [Example I-322, 3-tert-butoxy-N-[[4-[2-(5,6-dihydro-4H-pyrrolo[1,2-b]pyrazol-3-ylamino)pyrimidin-4-yl]-2-methyl-phenyl]methyl]azetidine-1-carboxamide] | < 10 nM | < 500 nM | –
CCn1cc(Nc2nccc(-c3ccc4c(c3)CCCCC4NC(=O)N3CC(OC(C)(C)C)C3)n2)cn1 (stereo not shown) [Example I-173, 3-(tert-butoxy)-N-(2-(2-((1-ethyl-1H-pyrazol-4-yl)amino)pyrimidin-4-yl)-6,7,8,9-tetrahydro-5H-benzo[7]annulen-5-yl)azetidine-1-carboxamide] | < 10 nM | < 500 nM | –
CC(C)n1cc(Nc2nccc(-c3ccc4c(c3)CCCCC4NC(=O)N3CC(OC(C)(C)C)C3)n2)cn1 (stereo not shown) [Example I-174, 3-(tert-butoxy)-N-(2-(2-((1-isopropyl-1H-pyrazol-4-yl)amino)pyrimidin-4-yl)-6,7,8,9-tetrahydro-5H-benzo[7]annulen-5-yl)azetidine-1-carboxamide] | < 10 nM | < 500 nM | –
Cc1cc(-c2ccnc(Nc3cnn(C)c3C)n2)ccc1CNC(=O)N1CC(OC(C)(C)C)C1 [Example I-223, 3-(tert-butoxy)-N-(4-(2-((1,5-dimethyl-1H-pyrazol-4-yl)amino)pyrimidin-4-yl)-2-methylbenzyl)azetidine-1-carboxamide] | < 10 nM | 500 to 1500 nM | –
Cc1cc(-c2cc(Nc3ccc(N4CCN(C)CC4)cn3)ncn2)ccc1CNC(=O)N1CC(OC(C)(C)C)C1 [Example I-251, 3-tert-butoxy-N-[[2-methyl-4-[6-[[5-(4-methylpiperazin-1-yl)-2-pyridyl]amino]pyrimidin-4-yl]phenyl]methyl]azetidine-1-carboxamide] | < 10 nM | < 500 nM | –
Cc1cc(-c2ccnc(Nc3cnn(C(C)C)c3)n2)ccc1CNC(=O)N1CC(OC(C)(C)C)C1 [Example I-306, 3-tert-butoxy-N-[[4-[2-[(1-isopropylpyrazol-4-yl)amino]pyrimidin-4-yl]-2-methyl-phenyl]methyl]azetidine-1-carboxamide] | < 10 nM | – | < 500 nM
Cc1cc(-c2cc(Nc3ccc4c(n3)CCNC4)ncn2)ccc1CNC(=O)c1cnc(C(C)(C)C)s1 [Example I-266, 2-tert-butyl-N-[[2-methyl-4-[6-(5,6,7,8-tetrahydro-1,6-naphthyridin-2-ylamino)pyrimidin-4-yl]phenyl]methyl]thiazole-5-carboxamide] | < 10 nM | < 500 nM | –
CC(C)(C)C1CCN(C(=O)NCc2ccc(-c3ccnc(Nc4cnn(C5CCNC5)c4)n3)cc2C(F)(F)F)C1 [Example I-318, 3-tert-butyl-N-[8 4-[2-[[1-[(3R)-pyrrolidin-3-yl]pyrazol-4-yl]amino]pyrimidin-4-yl]-2-(trifluoromethyl)phenyl]methyl]pyrrolidine-1-carboxamide] | < 10 nM | < 500 nM | –
CC(C)OC1CN(C(=O)NC2CCN(C3COC3)Cc3cc(-c4ccnc(Nc5cnn(C)c5)n4)ccc32)C1 (stereo not shown) [Example I-188, 3-isopropoxy-N-(8-(2-((1-methyl-1H-pyrazol-4-yl)amino)pyrimidin-4-yl)-2-(oxetan-3-yl)-2,3,4,5-tetrahydro-1H-benzo[c]azepin-5-yl)azetidine-1-carboxamide] | < 10 nM | 500 to 1500 nM | –
CC(C)C1CCN(C(=O)NC2CCCCc3cc(-c4ccnc(Nc5cnn(C6CCOCC6)c5)n4)ccc32)C1 (stereo not shown) [Example I-342, 3-isopropyl-N-[2-[2-[(1-tetrahydropyran-4-ylpyrazol-4-yl)amino]pyrimidin-4-yl]-6,7,8,9-tetrahydro-5H-benzo[7]annulen-5-yl]pyrrolidine-1-carboxamide] | < 10 nM | < 500 nM | –
CC(C)OC1CN(C(=O)NCc2ccc(-c3ccnc(Nc4cnn(C5CN(C)C5)c4)n3)cc2Cl)C1 [Example I-353, N-[[2-chloro-4-[2-[[1-(1-methylazetidin-3-yl)pyrazol-4-yl]amino]pyrimidin-4-yl]phenyl]methyl]-3-isopropoxy-azetidine-1-carboxamide] | < 10 nM | < 500 nM | –
Cc1cc(-c2ccnc(Nc3cnn(C)c3)n2)ccc1CNC(=O)N1CC[C@@H](C(C)C)C1 [Example I-255, (3S)-3-isopropyl-N-[[2-methyl-4-[2-[(1-methylpyrazol-4-yl)amino]pyrimidin-4-yl]phenyl]methyl]pyrrolidine-1-carboxamide] | < 10 nM | < 500 nM | –
Cc1cc(-c2nc(Nc3cnn(C)c3)ncc2F)ccc1CNC(=O)c1cnc(C(C)(C)C)s1 [Example I-111, 2-(tert-butyl)-N-(4-(5-fluoro-2-((1-methyl-1H-pyrazol-4-yl)amino)pyrimidin-4-yl)-2-methylbenzyl)thiazole-5-carboxamide] | < 10 nM | 1500 to 10000 nM | –
CC(C)OC1CN(C(=O)NC2CCCCc3cc(-c4ccnc(Nc5cnn(CC(C)(C)O)c5)n4)ccc32)C1 (stereo not shown) [Example I-336, N-[2-[2-[[1-(2-hydroxy-2-methyl-propyl)pyrazol-4-yl]amino]pyrimidin-4-yl]-6,7,8,9-tetrahydro-5H-benzo[7]annulen-5-yl]-3-isopropoxy-azetidine-1-carboxamide] | < 10 nM | < 500 nM | –

Continued, in another order:

IC50 (BTK enzyme) | IC50 [1] | SMILES | IC50 ([1]; read-out: pBTK IC50, human whole blood, 37° C. for 30 min)
< 10 nM | < 500 nM | Cc1cc(-c2cc(Nc3cc4n(n3)CCN(C)C4)ncn2)ccc1CNC(=O)N1CCC(C(C)(C)C)C1 (stereo not shown) [Example I-275, 3-tert-butyl-N-[[2-methyl-4-[6-[(5-methyl-6,7-dihydro-4H-pyrazolo[1,5-a]pyrazin-2-yl)amino]pyrimidin-4-yl]phenyl]methyl]pyrrolidine-1-carboxamide] | –
< 10 nM | < 500 nM | Cc1cc(-c2ccnc(Nc3cnn(C(C)C)c3)n2)ccc1CNC(=O)N1CC(OC(C)C)C1 [Example I-259, 3-isopropoxy-N-[[4-[2-[(1-isopropylpyrazol-4-yl)amino]pyrimidin-4-yl]-2-methyl-phenyl]methyl]azetidine-1-carboxamide] | –
< 10 nM | < 500 nM | Cc1cc(-c2ccnc(Nc3cnn([C@H]4CC[C@@H](C(=O)O)CC4)c3)n2)ccc1CNC(=O)c1cnc(C(C)(C)C)s1 [Example I-48, cis-4-(4-((4-(4-((2-(tert-butyl)thiazole-5-carboxamido)methyl)-3-methylphenyl)pyrimidin-2-yl)amino)-1H-pyrazol-1-yl)cyclohexanecarboxylic acid] | –
< 10 nM | < 500 nM | Cc1cc(-c2cc(Nc3ccc(N4CCN(C)CC4)cn3)ncn2)ccc1CNC(=O)c1cnc(C(C)(C)C)s1 [Example I-69, 2-(tert-butyl)-N-(2-methyl-4-(6-((5-(4-methylpiperazin-1-yl)pyridin-2-yl)amino)pyrimidin-4-yl)benzyl)thiazole-5-carboxamide] | –
< 10 nM | < 500 nM | Cc1cc(-c2cc(Nc3cc4n(n3)CCN(C)C4)ncn2)ccc1CNC(=O)N1CC[C@H](C(C)(C)C)C1 [Example I-245, (R)-3-(tert-butyl)-N-(2-methyl-4-(6-((5-methyl-4,5,6,7-tetrahydropyrazolo[1,5-a]pyrazin-2-yl)amino)pyrimidin-4-yl)benzyl)pyrrolidine-1-carboxamide] | –
< 10 nM | < 500 nM | Cc1cc(-c2cc(Nc3cc4n(n3)CCOC4)ncn2)ccc1CNC(=O)N1CCC(C(C)(C)C)C1 (stereo not shown) [Example I-288, 3-tert-butyl-N-[[4-[6-(6,7-dihydro-4H-pyrazolo[5,1-c][1,4]oxazin-2-ylamino)pyrimidin-4-yl]-2-methyl-phenyl]methyl]pyrrolidine-1-carboxamide] | –
< 10 nM | < 500 nM | Cc1cc(-c2ccnc(Nc3cnn(C4CN(C)C4)c3)n2)ccc1CNC(=O)c1cnc(C(C)(C)C)s1 [Example I-43, 2-(tert-butyl)-N-(2-methyl-4-(2-((1-(1-methylazetidin-3-yl)-1H-pyrazol-4-yl)amino)pyrimidin-4-yl)benzyl)thiazole-5-carboxamide] | –
< 10 nM | < 500 nM | Cc1cc(-c2ccnc(Nc3cnn(C4CCC(C(=O)O)CC4)c3)n2)ccc1CNC(=O)c1cnn(C(C)(C)C)c1 (stereo not shown) [Example I-292, 4-[4-[[4-[4-[[(1-tert-butylpyrazole-4-carbonyl)amino]methyl]-3-methyl-phenyl]pyrimidin-2-yl]amino]pyrazol-1-yl]cyclohexanecarboxylic acid] | –
< 10 nM | < 500 nM | CN1CCC(n2cc(Nc3nccc(-c4ccc(CNC(=O)N5CCC(C(C)(C)C)C5)c(C(F)(F)F)c4)n3)cn2)CC1 (stereo not shown) [Example I-298, 3-tert-butyl-N-[[4-[2-[[1-(1-methyl-4-piperidyl)pyrazol-4-yl]amino]pyrimidin-4-yl]-2-(trifluoromethyl)phenyl]methyl]pyrrolidine-1-carboxamide] | –
< 10 nM | < 500 nM | CC(C)CN1CCN(Cc2ccc(-c3ccnc(Nc4cnn(CCO)c4)n3)cc2C(F)(F)F)C(=O)C1 [Example I-310, 1-[[4-[2-[[1-(2-hydroxyethyl)pyrazol-4-yl]amino]pyrimidin-4-yl]-2-(trifluoromethyl)phenyl]methyl]-4-isobutyl-piperazin-2-one] | –
< 10 nM | 1500 to 10000 nM | Cc1cc(-c2ccnc(Nc3cnn(C)c3)n2)ccc1C(CO)NC(=O)c1cnc(C(C)(C)C)s1 (stereo not shown) [Example I-108, 2-(tert-butyl)-N-(2-hydroxy-1-(2-methyl-4-(2-((1-methyl-1H-pyrazol-4-yl)amino)pyrimidin-4-yl)phenyl)ethyl)thiazole-5-carboxamide] | –
